Literature values as cited in patent publication US7816298B2, “Hydroconversion processes employing multi-metallic catalysts and method for making thereof” (Chevron U. S. A. Inc., priority 2007, dated 2010).

Tested on: rats
Conditions: as single oral dose to rats; values quoted for chelating agents (ligand L)

## O=CC(=O)O [glyoxylic]
  LD50: 3000 mg/kg
